According to patent US11896568B2, “Compositions and methods for treating patients suffering from glioma or leukemia” (University of Cincinnati, priority 2016, dated 2024):

What was measured:
[1] = tested on: R-2HG-resistant leukemic cells; test: JQ1 with R-2HG in resistant leukemic cells, cell viability; type: cell-based, human; settings: inhibition of MYC signaling by JQ1
Experimental: Cell proliferation/viability, cell cycle and cell apoptosis assays. To study the effects of R-2HG, FTO, or IDH1^R132H on viability, the cells were seeded into 96-well plates at the concentration of 5,000-10,000 cells/well in triplicates and MTT (G4000, Promega) was used to assess cell proliferation and viability following the manufacturer's instructions. For cell cycle analysis, Propidium iodide (PI) DNA staining was used to assess the cells at G0/G1, S and G2/M phases, while Hoechst 33342 and Pyronin Y were used to determine the cells at G0, G1 and S/G2/M stages. For the PI staining, cells were resuspended in Krishan's reagent (0.05 mg/ml PI, 0.1% trisodium citrate, 0.02 mg/ml ribonuclease A, 0.3% NP-40), incubated at 37° C. for 30 minutes and then applied to the flow cytometer.; For Hoechst/Pyronin Y staining, the cells were suspended in cell culture medium, incubated at 37° C. for 45 minutes with existence of 10 ug/mL Hoechst 33342 and further incubated at 37° C. for 15 minutes with existence of Pyronin Y before flow cytometry. Cell apoptosis assay was conducted with FITC Annexin V Apoptosis Detection Kit I (BD Pharmingen) according to the manufacturer's instructions.

[2] = tested on: Primary AML cells with IDH mutations; test: JQ1 sensitivity of primary AML cells; type: cell-based, human; settings: "often"

With `Cc1sc2c(c1C)C(c1ccc(Cl)cc1)=N[C@@H](CC(=O)OC(C)(C)C)c1nnc(C)n1-2` [JQ1] the “sensitivity of R-2HG-resistant leukemic cells to exogenous R-2HG or IDH1^R132H” value [1] was “notably increased sensitivity” and the IC50 [2] was less than 1000 nM.
